{"source": "patent US20090285916A1", "about": "“METHODS OF DIAGNOSIS AND TREATMENT OF EQUINE LAMINITIS AND CUSHING'S SYNDROME” (Pegasus Equine Diagnostics Limited, priority 2006, published 2009)", "key": {"[1]": {"test_system": "PPID (pituitary pars intermedia dysfunction)", "assay": "Anecdotal evidence on melatonin and pergolide dosing in PPID horses and ponies", "assay_type": "in vivo", "description": "From a chronological perspective obviously both groups of horses were aged (>16 years), but from the viewpoint of the Neuroendocrine Theory of Aging (21) the PPID group might be considered to be of greater “biological age” than the control group. […] There was also a pronounced dopamine rhythm phase shift and amplitude decrease for the PPID group in June and September, in addition to evidence of serotonin acrophase amplitudes being increased in September. These observations are consistent with the reduction in dopamine and concomitant increase in serotonin implied in the treatment of PPID horses with dopamine agonists and serotonin antagonists. […] This may also apply to the subsequent increases in follicle density and length plus coarsening of the hair structure that have been observed. It is worth noting that the significant differences between the groups in our results appear to pre-date the traditionally acknowledged seasons (spring, autumn) of increased laminitis susceptibility by approximately three months (as well as being present during such seasons); this is perhaps not when most practitioners would expect them. […] The situation may, of course, be exacerbated by other trigger factors for laminitis becoming part of the external conditions to which the horse is exposed, e.g. access to a flush of spring grass. Additionally, it might be expected that dopamine and serotonin would be the dominant factors implicated in investigating PPID, as defined by past treatment regimes. However, when the results of the present study were examined as a whole, taking into account assay sensitivity, the neurohormone rhythms that were discovered and neurohormone rhythms that exist in the literature for healthy horses (14, 40, 41), the signals felt to be most reliable were dopamine plasma concentrations and serotonin:melatonin and dopamine:melatonin plasma concentration ratios, with serotonin:dopamine only represented for two times in June (as shown in FIG. 6). […]"}, "equine digital arteries": {"test_system": "equine digital arteries", "settings": "reference 38; cited from earlier work"}}}
{"smiles": "CCCN1C[C@H](CSC)C[C@@H]2c3cccc4[nH]cc(c34)C[C@H]21", "note": "[pergolide]", "values": [{"measurement": "effect of changing time of day of administration, changing the dosage (by as little as 0.05 mg per day) and under or over dosing", "setting": "[1]", "result": "increase the probability that laminitis will occur"}, {"measurement": "maximum dosage for ponies", "setting": "[1]; ponies", "result": 0.75, "unit": "mg"}]}
{"smiles": "COc1ccc2[nH]cc(CCNC(C)=O)c2c1", "note": "[melatonin]", "values": [{"measurement": "shedding of the winter coat", "setting": "[1]; low dosage 1.5 mg, in the evening each day, all year round", "result": "facilitates shedding of the winter coat at the expected time"}]}
{"smiles": "NCCc1c[nH]c2ccc(O)cc12", "note": "[5-HT, 5-hydroxytryptamine]", "values": [{"measurement": "sensitivity of digital arteries to vasoconstrictive actions compared with other peripheral blood vessels", "setting": "equine digital arteries", "result": "30-40 fold"}]}
